Assay results: ChEMBL document CHEMBL1127045 (J Med Chem, 1993)

target: Serotonin 2 (5-HT2) receptor (Mus musculus) (UniProt Q02152+P34968+P35363); experiment: Effective dose through peroral route for in vivo inhibition against 5-hydroxytryptamine 2 receptor in male CF-1 mice by using radioligand [3H]ketanserin; assay type: organism-based
Sequence (P34968 whole entry, looked up): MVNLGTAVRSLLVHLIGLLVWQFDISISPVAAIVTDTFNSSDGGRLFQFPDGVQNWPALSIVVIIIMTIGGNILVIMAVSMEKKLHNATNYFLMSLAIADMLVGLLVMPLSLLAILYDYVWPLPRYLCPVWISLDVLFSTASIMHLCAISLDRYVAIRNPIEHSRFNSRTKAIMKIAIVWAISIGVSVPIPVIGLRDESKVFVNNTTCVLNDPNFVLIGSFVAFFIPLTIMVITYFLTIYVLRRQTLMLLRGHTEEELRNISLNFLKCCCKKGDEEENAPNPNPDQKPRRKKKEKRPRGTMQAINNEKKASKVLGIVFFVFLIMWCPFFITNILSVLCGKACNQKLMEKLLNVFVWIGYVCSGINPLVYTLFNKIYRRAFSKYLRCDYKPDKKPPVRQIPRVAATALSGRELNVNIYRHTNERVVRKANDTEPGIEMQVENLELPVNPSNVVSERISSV
Sequence (P35363 whole entry, looked up): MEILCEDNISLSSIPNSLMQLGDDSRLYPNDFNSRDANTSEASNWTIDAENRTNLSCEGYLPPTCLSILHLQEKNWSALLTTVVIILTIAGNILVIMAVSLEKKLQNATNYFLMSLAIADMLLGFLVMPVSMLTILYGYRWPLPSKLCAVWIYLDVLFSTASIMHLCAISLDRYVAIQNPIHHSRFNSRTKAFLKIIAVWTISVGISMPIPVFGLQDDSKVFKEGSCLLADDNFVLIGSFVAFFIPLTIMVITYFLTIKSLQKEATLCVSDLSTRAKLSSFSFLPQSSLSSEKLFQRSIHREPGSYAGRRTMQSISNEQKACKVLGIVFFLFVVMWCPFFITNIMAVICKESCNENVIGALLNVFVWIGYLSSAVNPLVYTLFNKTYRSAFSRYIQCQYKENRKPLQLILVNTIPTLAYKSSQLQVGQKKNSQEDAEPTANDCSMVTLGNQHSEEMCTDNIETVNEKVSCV
Sequence (Q02152 whole entry, looked up): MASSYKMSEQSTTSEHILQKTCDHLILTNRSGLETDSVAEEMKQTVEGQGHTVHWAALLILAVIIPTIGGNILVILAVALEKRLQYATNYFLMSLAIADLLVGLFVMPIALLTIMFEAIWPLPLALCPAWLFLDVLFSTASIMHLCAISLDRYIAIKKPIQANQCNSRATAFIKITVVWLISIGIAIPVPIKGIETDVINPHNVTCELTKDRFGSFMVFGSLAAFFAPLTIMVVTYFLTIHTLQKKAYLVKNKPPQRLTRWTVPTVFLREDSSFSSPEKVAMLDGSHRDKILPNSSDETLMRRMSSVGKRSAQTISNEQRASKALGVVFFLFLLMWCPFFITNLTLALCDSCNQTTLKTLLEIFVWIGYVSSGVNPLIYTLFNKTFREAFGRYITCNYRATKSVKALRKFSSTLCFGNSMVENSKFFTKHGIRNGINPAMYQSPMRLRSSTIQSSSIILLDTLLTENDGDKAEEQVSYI

| SMILES | ED50 [mg/kg] | inhibition [%] |
| --- | --- | --- |
| O=C(CCCN1C2CCCC1c1c([nH]c3ccccc13)C2)c1ccc(F)cc1 (stereo unspecified) | 16.3 |  |
| O=C(CCCN1C2CCC1c1c([nH]c3ccc(F)cc13)C2)c1ccc(F)cc1 (stereo unspecified) | 41.1 |  |
| O=C(CCCCN1C2CCC1c1c([nH]c3ccc(F)cc13)C2)c1ccccc1 (stereo unspecified) | 0.65 |  |
| O=C(CCCN1C2CCCC1c1c([nH]c3ccc(F)cc13)C2)c1ccc(F)cc1 (stereo unspecified) | 5.89 |  |
| O=C(CCCCN1C2CCC1c1c([nH]c3ccccc13)C2)c1ccc(F)cc1 (stereo unspecified) | 7.32 |  |
| O=C(CCCN1C2CCC1c1c([nH]c3ccccc13)C2)c1ccccc1 (stereo unspecified) |  | 12 |
| O=C(CCCN1C2CCC1c1c([nH]c3ccccc13)C2)c1ccc(F)cc1 (stereo unspecified) | 20.9 |  |
| Cc1nc2sccn2c(=O)c1CCN1CCC(=C(c2ccc(F)cc2)c2ccc(F)cc2)CC1 [RITANSERIN] | 0.14 |  |

target: 5-HT2A receptor (Rattus norvegicus); experiment: Binding affinity against 5-hydroxytryptamine 2 receptor from rat cortical synaptosomal membrane using radioligand [3H]ketanserin.

| SMILES | Ki [nM] |
| --- | --- |
| Fc1ccc(CCCCN2C3CCCC2c2c([nH]c4ccccc24)C3)cc1 (stereo unspecified) | 24.5 |
| Fc1ccc(CCCCN2C3CCCC2c2c([nH]c4ccc(F)cc24)C3)cc1 (stereo unspecified) | 143 |
| c1ccc2c(CCCCN3C4CCC3c3c([nH]c5ccccc35)C4)c[nH]c2c1 (stereo unspecified) | 329 |
| O=C(CCCN1C2CCC1c1c([nH]c3ccc(F)cc13)C2)c1ccco1 (stereo unspecified) | 264 |
| Fc1ccc2c(CCCN3C4CCCC3c3c([nH]c5ccc(F)cc35)C4)noc2c1 (stereo unspecified) | 13.4 |
| O=C(CCCN1C2CCCC1c1c([nH]c3ccccc13)C2)c1ccc(F)cc1 (stereo unspecified) | 0.85 |
| O=C1c2ccccc2C(=O)N1CCCCN1C2CCC1c1c([nH]c3ccccc13)C2 (stereo unspecified) | 879 |
| c1ccc(CCCCN2C3CCCC2c2c([nH]c4ccccc24)C3)cc1 (stereo unspecified) | 103 |
| O=C(CCCCN1C2CCCC1c1c([nH]c3ccc(F)cc13)C2)c1ccccc1 (stereo unspecified) | 59.8 |
| Fc1ccc2c(CCCCN3C4CCCC3c3c([nH]c5cccc(F)c35)C4)noc2c1 (stereo unspecified) | 133 |
| Cn1c2c(c3ccccc31)C1CCC(C2)N1CCCC(=O)c1ccc(F)cc1 (stereo unspecified) | 2.83 |
| c1ccc2c(c1)ccn2CCCCN1C2CCC1c1c([nH]c3ccccc13)C2 (stereo unspecified) | 284 |
| O=C1CC2CCC(C1)N2CCCC(=O)c1ccc(F)cc1 | 533 |
| O=C(CCCCN1C2CCCC1c1c([nH]c3ccccc13)C2)c1ccccc1 (stereo unspecified) | 20.9 |
| O=C(CCCCN1C2CCC1c1c([nH]c3ccc(F)cc13)C2)c1ccccc1 (stereo unspecified) | 2.98 |
| O=S1(=O)c2cccc3cccc(c23)N1CCCCN1C2CCC1c1c([nH]c3ccc(F)cc13)C2 (stereo unspecified) | 1245 |
| O=C(CCCN1C2CCC1c1c([nH]c3ccccc13)C2)c1ccccc1 (stereo unspecified) | 6.55 |
| Fc1ccc2[nH]c3c(c2c1)C1CCCC(C3)N1CCCCc1ccccc1 (stereo unspecified) | 172 |
| c1ccc2sc(CCCCN3C4CCC3c3c([nH]c5ccccc35)C4)cc2c1 (stereo unspecified) | 610 |
| O=C(CCCN1C2CCC1c1c(n(-c3ccccc3)c3ccccc13)C2)c1ccc(F)cc1 (stereo unspecified) | 330 |

target: D(2) dopamine receptor (Rattus norvegicus, UniProt P61169); experiment: Binding affinity against dopamine receptor D2 from rat corpus striatum by using radioligand [3H]sulpiride
Sequence (P61169 whole entry): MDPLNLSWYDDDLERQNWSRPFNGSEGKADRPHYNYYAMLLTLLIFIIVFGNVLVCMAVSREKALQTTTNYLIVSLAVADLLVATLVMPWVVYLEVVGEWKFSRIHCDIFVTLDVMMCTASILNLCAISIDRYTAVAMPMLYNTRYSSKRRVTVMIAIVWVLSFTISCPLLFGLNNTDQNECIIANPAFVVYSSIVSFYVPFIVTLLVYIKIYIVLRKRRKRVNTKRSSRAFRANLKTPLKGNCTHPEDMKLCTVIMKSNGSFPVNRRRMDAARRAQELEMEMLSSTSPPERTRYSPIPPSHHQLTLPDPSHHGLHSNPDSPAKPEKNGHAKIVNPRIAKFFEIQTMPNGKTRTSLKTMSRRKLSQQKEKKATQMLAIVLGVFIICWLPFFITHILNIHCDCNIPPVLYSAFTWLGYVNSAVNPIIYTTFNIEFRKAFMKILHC

| SMILES | Ki [nM] |
| --- | --- |
| Fc1ccc(CCCCN2C3CCCC2c2c([nH]c4ccccc24)C3)cc1 (stereo unspecified) | 973 |
| O=C(CCCN1C2CCC1c1c([nH]c3ccccc13)C2)c1cccs1 (stereo unspecified) | 550 |
| c1ccc2c(CCCN3C4CCC3c3c([nH]c5ccccc35)C4)c[nH]c2c1 (stereo unspecified) | 1160 |
| Fc1ccc(CCCCN2C3CCCC2c2c([nH]c4ccc(F)cc24)C3)cc1 (stereo unspecified) | 1960 |
| c1ccc2c(CCCCN3C4CCC3c3c([nH]c5ccccc35)C4)c[nH]c2c1 (stereo unspecified) | 853 |
| O=C(CCCN1C2CCC1c1c([nH]c3ccc(F)cc13)C2)c1ccco1 (stereo unspecified) | 643 |
| Fc1ccc2c(CCCN3C4CCCC3c3c([nH]c5ccc(F)cc35)C4)noc2c1 (stereo unspecified) | 248 |
| O=C1c2ccccc2C(=O)N1CCCCN1C2CCC1c1c([nH]c3ccccc13)C2 (stereo unspecified) | 2630 |
| c1ccc(CCCCN2C3CCCC2c2c([nH]c4ccccc24)C3)cc1 (stereo unspecified) | 670 |
| O=C(CCCCN1C2CCCC1c1c([nH]c3ccc(F)cc13)C2)c1ccccc1 (stereo unspecified) | 72 |
| Fc1ccc2c(CCCCN3C4CCCC3c3c([nH]c5cccc(F)c35)C4)noc2c1 (stereo unspecified) | 131 |
| Cn1c2c(c3ccccc31)C1CCC(C2)N1CCCC(=O)c1ccc(F)cc1 (stereo unspecified) | 287 |
| c1ccc2c(c1)ccn2CCCCN1C2CCC1c1c([nH]c3ccccc13)C2 (stereo unspecified) | 635 |
| O=C1CC2CCC(C1)N2CCCC(=O)c1ccc(F)cc1 | 1.3 |
| O=C(CCCCN1C2CCCC1c1c([nH]c3ccccc13)C2)c1ccccc1 (stereo unspecified) | 43.5 |
| O=C(CCCCN1C2CCC1c1c([nH]c3ccc(F)cc13)C2)c1ccccc1 (stereo unspecified) | 2.77 |
| O=S1(=O)c2cccc3cccc(c23)N1CCCCN1C2CCC1c1c([nH]c3ccc(F)cc13)C2 (stereo unspecified) | 1010 |
| c1ccc2c3c([nH]c2c1)CC1CCC3N1 (stereo unspecified) | > 10000 |
| O=C(CCCCN1C2CCC1c1c([nH]c3ccc(F)cc13)C2)c1ccc(F)cc1 (stereo unspecified) | 34.1 |
| O=C(CCCN1C2CCC1c1c([nH]c3ccccc13)C2)c1ccccc1 (stereo unspecified) | 540 |
| O=C(CCCN1C2CCC1c1c([nH]c3ccccc13)C2)c1ccc(F)cc1 (stereo unspecified) | 275 |
| Cc1nc2sccn2c(=O)c1CCN1CCC(=C(c2ccc(F)cc2)c2ccc(F)cc2)CC1 [RITANSERIN] | 93 |
| c1ccc2sc(CCCCN3C4CCC3c3c([nH]c5ccccc35)C4)cc2c1 (stereo unspecified) | 416 |
